Data on one molecule can be found in US20060188879A1, “Crh responsive genes in cns” (Janssen Pharmaceutica N.V., priority 2002, published 2006).

Format in all cases: in vivo, mouse
The test system of experiment [1] is neurotensin receptor 2 (Ntsr2). The experiment is described as follows: Quantitative RT-PCR / microarray of Ntsr2 mRNA in brain areas of treated WT and CRF-OE mice. The following applies: 10 mg/kg, 2 times per day for 5 days, 16 hrs after last treatment. The method, then:
(§1) Animal housing and treatment—Male transgenic CRF overexpressing C57BL/6J mice (CRF-OE or TG) and their wild-type littermates (WT) were maintained in an specific pathogen free facility that meets all national and European requirements for animal care. Mice were housed individually 4 weeks before the start of the experiment in a climate-controlled animal colony with a 12 h dark-light cycle (light on 7:00 EST) with free access to food and water. Prior to treatment 3 month old mice were randomized over three groups each comprising 4 wild-type and 4 transgenic animals. One group received no treatment, a second group received vehicle injection 5 days, 2 times per day (10% cyclodextran (CD), pH4) and a third group received 10 mg/kg of a CRH-R1 specific antagonist R121919 in 10% CD following the same regime. 16 hrs after last treatment animals were sacrificed for dissection of brain areas and subsequent isolation of RNA. […]
Microarray hybridization—cRNA was prepared as follows. […] Subsequently arrays were scanned with a HP-Laserscanner and data were analyzed with the Microarray Suite Software (Affymetrix). […] Quality of the experiment was assessed based on the percentages present calls (see table).
Quantitative RT-PCR—Microarray data were confirmed using real time PCR analysis. […] Quantitative PCR was performed on a ABIPrism 7700 cycler (Applied Biosystems) using a Taqman PCR kit. […]

In experiment [2] the test system is all NTS-sites (Nts1-3). The experiment is described as follows: [125I]NT binding, quantitative autoradiography on brain sections of treated mice. The note with it: subchronic administration. The method, then: FIG. 6: [^125I]NT binding (0.1 nM, 30 min, RT) to all NTS-sites determined via quantitative autoradiography on frozen glass-mounted brain tissue sections. Data are represented as the average IOD±SEM of three animals determined on at least three different Bregma sections each.
Animal housing and treatment—Male transgenic CRF overexpressing C57BL/6J mice (CRF-OE or TG) and their wild-type littermates (WT) were maintained in an specific pathogen free facility that meets all national and European requirements for animal care. Mice were housed individually 4 weeks before the start of the experiment in a climate-controlled animal colony with a 12 h dark-light cycle (light on 7:00 EST) with free access to food and water. Prior to treatment 3 month old mice were randomized over three groups each comprising 4 wild-type and 4 transgenic animals. One group received no treatment, a second group received vehicle injection 5 days, 2 times per day (10% cyclodextran (CD), pH4) and a third group received 10 mg/kg of a CRH-R1 specific antagonist R121919 in 10% CD following the same regime. 16 hrs after last treatment animals were sacrificed for dissection of brain areas and subsequent isolation of RNA.
Autoradiography—[^125 I]Neurotensin binding and film radiographs on brains of adult male transgenic C57BU6J mice and their wild-type littermates, was performed as described previously by Moyse et al. (12). […] Incubating additional sections in the presence of 1 μM native neurotensin assessed the non-specific staining. […] On each section structures were delineated interactively and pixel gray levels were measured in the outlined areas. The pixel gray levels were converted to radioactivity per mg of tissue using the co-exposed ^125I-standards and averaged over the measured area. Data were analyzed statistically by a two-way ANOVA and concomitant Bonferroni's Post-hoc test using SPSS 11.0 software.

The subject of experiment [3] is gene expression profiles in brain areas of CRH overexpressing mice. As to the kind of experiment: Microarray gene expression profiles of brain areas (spectral map analysis, SAM). How it is done: Animal housing and treatment—Male transgenic CRF overexpressing C57BL/6J mice (CRF-OE or TG) and their wild-type littermates (WT) were maintained in an specific pathogen free facility that meets all national and European requirements for animal care. Mice were housed individually 4 weeks before the start of the experiment in a climate-controlled animal colony with a 12 h dark-light cycle (light on 7:00 EST) with free access to food and water. Prior to treatment 3 month old mice were randomized over three groups each comprising 4 wild-type and 4 transgenic animals. […]
Microarray hybridization—cRNA was prepared as follows. […] Subsequently arrays were scanned with a HP-Laserscanner and data were analyzed with the Microarray Suite Software (Affymetrix). […] Quality of the experiment was assessed based on the percentages present calls (see table). […]
Basically this alignment sets the average intensity of one array to the average measured this normalization compensates for array to array variations in hybridization, washing and staining, ultimately allowing a reasonable comparison between arrays. After normalization, data were analyzed using weighted spectral mapping analysis (SMA) (7). […]

Experiment [4] concerns neurotensin receptor 1 (Ntsr1). The experiment is described as follows: Quantitative RT-PCR of Ntsr1 mRNA in brain areas of treated WT and CRF-OE mice. The following applies: 10 mg/kg, 2 times per day for 5 days, 16 hrs after last treatment, hippocampus. How it is done:
as §1
Quantitative RT-PCR—Microarray data were confirmed using real time PCR analysis. […] Quantitative PCR was performed on a ABIPrism 7700 cycler (Applied Biosystems) using a Taqman PCR kit. […] A linear regression line calculated from the standard curves allowed the determination of transcript levels in RNA samples from the different treatment groups at each brain area.

“Also recorded” adds a separate entry of the source.

As to `CCCN(CCC)c1cc(C)nc2c(-c3cnc(N(C)C)cc3C)c(C)nn12` [R121919], the “Upregulation of Ntsr2 mRNA expression in vehicle treated animals (repeated injection stress)” value in experiment [1] is “abolished; also recorded: counteracted”. The “Downregulation of [125I]NT binding at total NT binding level” value in experiment [2] (CRF-OE mice) is “counteracted the downregulation”. The “[125I]NT binding capacity compared to vehicle treated animals” value in experiment [2] (stratum radiatum bordering CA1-CA2 region, both WT and CRF-OE animals, p=0.057) is on record as “upward trend”. Also, the “Level of [125I]NT binding in treated CRF-OE animals versus untreated animals” value in experiment [2] (stratum radiatum, CRF-OE mice) is given as “equaled the level measured in untreated WT-animals; also recorded: equaled that in untreated animals”. Also, the “Changes in gene expression profile of CRH overexpressing (Tg) versus WT animals” value in experiment [3] (5 day treatment, all studied brain areas, exemplified by pituitary spectral map, listed as CRH-R1 antagonist) is on record as “not affected (or only to a limited degree); also recorded: does not lead to a general ‘normalization’”. Moreover, in experiment [3] (transgenic animals, pituitary), the “Effect on expression levels at the pituitary level” value is given as “some effect of the compound is measured”. In experiment [4], the “Upregulation of Ntsr1 mRNA expression in vehicle treated animals (repeated injection stress)” value is “abolished; also recorded: counteracted”.
